This test concerns analgesic activity of DALA. Description: Tail Flick test: increase in the analgesic activity of DALA (i.c.v.). Set-up: analgesic activity (Tail Flick), 10' / analgesic activity (Tail Flick), 20' / analgesic activity (Tail Flick), 30' / analgesic activity (Tail Flick), 45' / analgesic activity (Tail Flick), 60' / analgesic activity (Tail Flick), AVERAGE: scale not given here. Format: in vivo, rats. The conditions noted are these: for analgesic activity (Tail Flick), AVERAGE: average 10'-60'. Here is the method:
In order to check one of the possible mechanisms for the action of the compounds of the invention, that is, their possible inhibition of the enzymatic degradation of endogenous enkephalins, the following experiment was carried out:
A cannula was implanted in the right lateral ventricle of male rats having a weight of 150-200 g (groups of five animals were used) in order to allow the intracerebroventricular (i.c.v.) administration of drugs according to the method of Noble et al (Life Science 6, (1970) 281-291).
The animals were subsequently treated (i.c.v.) with 3 μg of D-ala-methionine-enkephalinamide (DALA) immediately after an injection (i.c.v.) of the compounds under study at the doses given in Table 4. Analgesia was tested for by the Tail Flick method already mentioned, at the times
(Thermal pain tests record how soon the animal reacts.)

Turning to `CCCCCCc1ccc(C(=O)N[C@@H](Cc2c[nH]c3ccccc23)C(=O)O)cc1` [Compound 26], for the setting “10(D) + 0.001 mg/kg (ICV)”, the “analgesic activity (Tail Flick), 10'” value was 62.44; the “analgesic activity (Tail Flick), 20'” value is reported as 73.94; the “analgesic activity (Tail Flick), 30'” value worked out at 67.94; the “analgesic activity (Tail Flick), 45'” value stood at 40.38. Also, under “10(D) + 0.001 mg/kg (ICV)”, the “analgesic activity (Tail Flick), 60'” value came out at 34.06 and the “analgesic activity (Tail Flick), AVERAGE” value was found to be 55.75 ± 7.84. Moreover, under “10(D) + 0.01 mg/kg (ICV)”, the “analgesic activity (Tail Flick), 10'” value stood at 80.54; the “analgesic activity (Tail Flick), 20'” value was 82.66; the “analgesic activity (Tail Flick), 30'” value is listed as 70.42; the “analgesic activity (Tail Flick), 45'” value came to 45.9. Where the note is “10(D) + 0.01 mg/kg (ICV)”, the “analgesic activity (Tail Flick), 60'” value is on record as 68.9 and the “analgesic activity (Tail Flick), AVERAGE” value came to 69.68 ± 6.53.

In the case of `O=C(N[C@@H](Cc1c[nH]c2ccccc12)C(=O)O)OC(c1ccccc1)c1ccccc1` [Compound 33], for the setting “10(D) + 0.001 mg/kg (ICV)”, the “analgesic activity (Tail Flick), 10'” value was determined as 64.12; the “analgesic activity (Tail Flick), 20'” value was 77.56; the “analgesic activity (Tail Flick), 30'” value is given as 72.7; the “analgesic activity (Tail Flick), 45'” value turned out to be 45.76. For the setting “10(D) + 0.001 mg/kg (ICV)”, the “analgesic activity (Tail Flick), 60'” value is on record as 57.38 and the “analgesic activity (Tail Flick), AVERAGE” value is 63.50 ± 5.63. In addition, for the setting “10(D) + 0.01 mg/kg (ICV)”, the “analgesic activity (Tail Flick), 10'” value was determined as 81.48; the “analgesic activity (Tail Flick), 20'” value is recorded as 100.00; the “analgesic activity (Tail Flick), 30'” value came to 80.22; the “analgesic activity (Tail Flick), 45'” value worked out at 59.24. Also, for the setting “10(D) + 0.01 mg/kg (ICV)”, the “analgesic activity (Tail Flick), 60'” value worked out at 55.88 and the “analgesic activity (Tail Flick), AVERAGE” value is reported as 75.36 ± 8.08.
